Common to all, as to assay: relative viability (nuclei count vs DMSO), 5 days (fraction); higher = more cells survive
Compound in assay [1]: CC(C)C[C@H](NC(=O)[C@H](Cc1ccccc1)NC(=O)c1cnccn1)B(O)O [Bortezomib] + CC(=O)Nc1cccc(-n2c(=O)n(C3CC3)c(=O)c3c(Nc4ccc(I)cc4F)n(C)c(=O)c(C)c32)c1 [Trametinib] (partner 0.02 µM)
Summed up:
(§1)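 Values are medians from duplicate plates. Each reflects relative viability, defined as the nuclei count of treated wells over that of vehicle wells. Lung cancer cell lines in 1536-well plates were pin-tool dosed one day after seeding with one drug alone or with a fixed anchor-drug dose plus five library-drug doses (not always all listed) in √10 steps, then fixed, stained and imaged at 4× after 5 days.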

Compound in assay [2]: CC1=CC(=NN1)NC2=CC(=NC(=N2)/C=C/C3=CC=CC=C3)N4CCN(CC4)C + Cc1cc(Nc2cc(N3CCN(C)CC3)nc(Sc3ccc(NC(=O)C4CC4)cc3)n2)n[nH]1 [Tozasertib] (partner 0.1 µM)
Summed up:
as §1

Compound in assay [3]: COC1=CC(c2cc3ccccc3[nH]2)=N/C1=C\c1[nH]c(C)cc1C [Obatoclax] + COc1cccc2cc(-c3nc([C@H]4CC[C@H](C(=O)O)CC4)n4ncnc(N)c34)[nH]c12 [OSI-027] (partner 0.5 µM)
Summed up:
as §1

Compound in assay [4]: COC1=CC(c2cc3ccccc3[nH]2)=N/C1=C\c1[nH]c(C)cc1C [Obatoclax] + O=C(CCCCCCC(=O)Nc1ccccc1)NO [Vorinostat] (partner 1 µM)
Summed up:
as §1

On to LK-2, for which the relative viability in assay [1] (first compound 0.0002 µM) was found to be 0.68; in assay [1] (first compound 0.000632 µM) it was 0.597; in assay [1] (first compound 0.002 µM), 0.332; in assay [1] (first compound 0.006325 µM), 0.156; in assay [1] (first compound 0.02 µM), 0.196; in assay [2] (first compound 0.08 µM), 0.187. Moreover, the relative viability in assay [2] (first compound 0.253 µM) turned out to be 0.153; in assay [2] (first compound 0.8 µM) it was 0.165; in assay [2] (first compound 2.53 µM), 0.171; in assay [2] (first compound 8 µM) it was 0.171; in assay [3] (first compound 0.01 µM) it was 0.261; in assay [3] (first compound 0.03162 µM), 0.214. Also, the relative viability was found to be 0.225 in assay [3] (first compound 0.1 µM); 0.256 in assay [3] (first compound 0.3162 µM); 0.192 in assay [3] (first compound 1 µM); 0.3 in assay [4] (first compound 0.01 µM); 0.247 in assay [4] (first compound 0.03162 µM); 0.253 in assay [4] (first compound 0.1 µM). The relative viability worked out at 0.296 in assay [4] (first compound 0.3162 µM) and 0.411 in assay [4] (first compound 1 µM).

For the cell line EKVX, the relative viability in assay [1] (first compound 0.0002 µM) is 0.345; in assay [1] (first compound 0.000632 µM), 0.38; in assay [1] (first compound 0.002 µM), 0.208; in assay [1] (first compound 0.006325 µM), 0.174; in assay [1] (first compound 0.02 µM), 0.0845; in assay [2] (first compound 0.08 µM), 0.396. Further, the relative viability was determined as 0.451 in assay [2] (first compound 0.253 µM); 0.383 in assay [2] (first compound 0.8 µM); 0.196 in assay [2] (first compound 2.53 µM); 0.104 in assay [2] (first compound 8 µM); 0.708 in assay [3] (first compound 0.01 µM); 0.74 in assay [3] (first compound 0.03162 µM). Further, the relative viability was found to be 0.797 in assay [3] (first compound 0.1 µM); 0.561 in assay [3] (first compound 0.3162 µM); 0.667 in assay [3] (first compound 1 µM); 0.747 in assay [4] (first compound 0.01 µM); 0.592 in assay [4] (first compound 0.03162 µM); 0.765 in assay [4] (first compound 0.1 µM). In addition, the relative viability stood at 0.725 in assay [4] (first compound 0.3162 µM) and 0.649 in assay [4] (first compound 1 µM).

Take NCI-H2009: the relative viability in assay [1] (first compound 0.0002 µM) amounted to 0.322; in assay [1] (first compound 0.000632 µM), 0.223; in assay [1] (first compound 0.002 µM), 0.256; in assay [1] (first compound 0.006325 µM) it was 0.0731; in assay [1] (first compound 0.02 µM), 0.0528; in assay [2] (first compound 0.08 µM), 0.656. Moreover, the relative viability was found to be 0.73 in assay [2] (first compound 0.253 µM); 0.663 in assay [2] (first compound 0.8 µM); 0.368 in assay [2] (first compound 2.53 µM); 0.217 in assay [2] (first compound 8 µM); 0.582 in assay [3] (first compound 0.01 µM); 0.608 in assay [3] (first compound 0.03162 µM). Moreover, the relative viability in assay [3] (first compound 0.1 µM) was found to be 0.535; in assay [3] (first compound 0.3162 µM) it was 0.229; in assay [3] (first compound 1 µM), 0.247; in assay [4] (first compound 0.01 µM), 0.723; in assay [4] (first compound 0.03162 µM) it was 0.73; in assay [4] (first compound 0.1 µM), 0.634. Moreover, the relative viability in assay [4] (first compound 0.3162 µM) worked out at 0.502; in assay [4] (first compound 1 µM), 0.251.

Turning to NCI-H838, the relative viability in assay [1] (first compound 0.0002 µM) stood at 0.479; in assay [1] (first compound 0.000632 µM), 0.677; in assay [1] (first compound 0.002 µM) it was 0.549; in assay [1] (first compound 0.006325 µM), 0.106; in assay [1] (first compound 0.02 µM), 0.0935; in assay [2] (first compound 0.08 µM), 0.296. The relative viability is 0.287 in assay [2] (first compound 0.253 µM); 0.271 in assay [2] (first compound 0.8 µM); 0.211 in assay [2] (first compound 2.53 µM); 0.119 in assay [2] (first compound 8 µM); 0.498 in assay [3] (first compound 0.01 µM); 0.367 in assay [3] (first compound 0.03162 µM). Moreover, the relative viability in assay [3] (first compound 0.1 µM) came to 0.46; in assay [3] (first compound 0.3162 µM), 0.385; in assay [3] (first compound 1 µM) it was 0.284; in assay [4] (first compound 0.01 µM) it was 0.687; in assay [4] (first compound 0.03162 µM), 0.7; in assay [4] (first compound 0.1 µM), 0.736. The results for the relative viability in assay [4] (first compound 0.3162 µM) and in assay [4] (first compound 1 µM) were 0.678 and 0.36, respectively.

For the cell line NCI-H2085, the relative viability in assay [1] (first compound 0.0002 µM) amounted to 0.622; in assay [1] (first compound 0.000632 µM) it was 0.501; in assay [1] (first compound 0.002 µM) it was 0.54; in assay [1] (first compound 0.006325 µM), 0.228; in assay [1] (first compound 0.02 µM) it was 0.155; in assay [2] (first compound 0.08 µM), 0.823. In addition, the relative viability in assay [2] (first compound 0.253 µM) stood at 0.749; in assay [2] (first compound 0.8 µM), 0.629; in assay [2] (first compound 2.53 µM), 0.424; in assay [2] (first compound 8 µM) it was 0.433; in assay [3] (first compound 0.01 µM), 0.818; in assay [3] (first compound 0.03162 µM), 0.917. In addition, the relative viability in assay [3] (first compound 0.1 µM) came out at 0.587; in assay [3] (first compound 0.3162 µM) it was 0.506; in assay [3] (first compound 1 µM), 0.359; in assay [4] (first compound 0.01 µM), 0.748; in assay [4] (first compound 0.03162 µM), 0.776; in assay [4] (first compound 0.1 µM), 0.669. For the same cell line, the relative viability in assay [4] (first compound 0.3162 µM) was determined as 0.787; in assay [4] (first compound 1 µM) it was 0.342.

(Values after the supplement of paper PMC10307832.)
